The target of one assay is T1, CDK6 (Homo sapiens, UniProt Q00534).
T1 construct: evaluate the effects of the compounds of the present disclosure on the expression of target proteins in cells; endogenous in cells; host or cells: MDA-MB-231
Nature of the assay: Western blot degradation of CDK6 (MDA-MB-231 Cell). In kind it is cell-based. The following applies: Table D3. The procedure: (§1) Conventional Western blot assay was performed to evaluate the effects of the compounds of the present disclosure on the expression of target proteins in cells.
(§2) (1) Cell Seeding and Protein Harvesting: The selected cells were processed according to the cell seeding procedure and protein harvesting procedure in Table III-2. Table III-2 Cell Seeding and Protein Harvesting Procedures
(§3) (2) To the collected supernatant, 5X SDS sample loading buffer was added, followed by denaturation at 95°C for 5 minutes. The denatured samples were then separated by SDS-PAGE electrophoresis on a polyacrylamide gel. Proteins were transferred to a nitrocellulose membrane (0.45 µm NC membrane), blocked with blocking buffer at room temperature for 1 hour, and subjected to antibody incubation and development procedures according to the antibody manufacturer's instructions (Cell Signaling Technology).
(§4) Half-Maximal Degradation Concentration value (the drug concentration required for degrading proteins by 50%, abbreviated as DC50) reads method: comparing the grayscale values of Western blot bands from drug-treated samples with those from blank DMSO-treated controls, and identifying the drug concentration range at which the grayscale value is half that of the DMSO-treated control bands.
(§5) DC50 values can be calculated using ImageJ software to measure grayscale values of Western blot bands from drug-treated samples. The concentration-response curve is fitted to estimate the drug concentration corresponding to half the grayscale value.
(§6) Target protein remaining (%) refers to the percentage of target protein remaining in hPBMC cells after treatment with protein degrader compounds.
(§7) Calculation method for target protein remaining (%): Use ImageJ software to measure grayscale values of Western blot bands from drug (protein degrader)-treated samples. The grayscale value of drug-treated bands is divided by that of internal control protein bands, and the resulting quotient is normalized to obtain the relative percentage of remaining target protein after protein degrader treatment.
(§8) Target protein degradation rate (%) = 100% - target protein remaining (%).

For another assay, the target named is T2, CDK4 (Homo sapiens, UniProt P11802).
T2 construct: evaluate the effects of the compounds of the present disclosure on the expression of target proteins in cells; endogenous in cells; host or cells: MDA-MB-231
Nature of the assay: Western blot degradation of CDK4 (MDA-MB-231 Cell). The assay is classed as cell-based. The following applies: Table D3. As for the experimental part:
as §1, §2, §3, §4, §5, §6, §7, §8

In a further assay the test system is H2228. Nature of the assay: CCK-8 proliferation, NCI-H2228 (H2228). The assay is classed as cell-based. Conditions: Homo sapiens, NCI-H2228; CCK-8; 96 hours; read-out: Inhibitory activity (IC50) on tumor cell proliferation, H2228. In short, it runs like this:
(§9)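 Cells seeded, then after 24 h treated with 10 concentrations (top 10 µM, 5-fold serial dilution) for a line-specific time at 37°C, 5% CO2. Viability read by CCK-8; IC50 fitted from growth-inhibition curves.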

The subject of another assay is H1975. Nature of the assay: CCK-8 proliferation, NCI-H1975 (H1975). The assay is classed as cell-based, Human. Conditions: Homo sapiens, NCI-H1975; CCK-8; 96 hours; read-out: Inhibitory activity (IC50) on tumor cell proliferation, H1975. In a few lines: as §9
A further assay deals with PC-9. The assay is described as follows: CCK-8 proliferation, PC-9. Conditions: Homo sapiens, PC-9; CCK-8; 96 hours; read-out: Inhibitory activity (IC50) on tumor cell proliferation, PC-9. The assay is classed as cell-based, Human. As for the experimental part:
(§10) The tumor cells used herein were cultured in a cell culture medium listed in table A1 at 37°C in an incubator with 5% CO2. Prior to experimentation, all cell lines used were correctly identified by STR profiling, and tested negative for mycoplasma contamination using a mycoplasma detection kit through routine screenings. Table A1. Tumor cells and cell culture medium used in the present disclosure
(§11) IC50 values of the compounds of the present disclosure (including the compounds in Table 1, and compounds of examples) were measured using the Meilun Cell Counting Kit-8 kit from Dalian Meilun Biotech Co., Ltd. Assay details are as follows: tumor cells were seeded in a 96-well plate at a density listed in Table A2. After 24h, 100 µL of the inoculated cells were treated with 0.5µL of the compounds of the present disclosure (including the compounds in Tables 1 and 2, and compounds of examples) at 10 different successively decreasing concentrations (starting at the highest concentration of 10µM; 5-fold serial dilutions). After the cells were treated with the compounds of the present disclosure for a period of time, the cell viability detection reagent was added to the culture medium for cell viability assessment according to the instructions provided with the CCK-8 kit. […] The growth inhibition of the compounds of the present disclosure on cells was plotted by Prism Graphpad software, and the IC50 values of the compounds of the present disclosure were calculated therefrom. […] Seeding protocol and treatment time for tumor cells

A further assay concerns CCRF-CEM. The assay is described as follows: CCK-8 proliferation, CCRF-CEM. Conditions: Homo sapiens, CCRF-CEM; CCK-8; 96 hours; read-out: Inhibitory activity (IC50) on tumor cell proliferation, CCRF-CEM. In kind it is cell-based, Human. The procedure: as §10, §11
In another assay the test system is MV-4-11. The assay is described as follows: CCK-8 proliferation, MV-4-11. In kind it is cell-based, Human. The following applies: Homo sapiens, MV4-11; CCK-8; 72 or 96 hours; read-out: Inhibitory activity (IC50) on tumor cell proliferation, MV-4-11. As for the experimental part: as §10, §11

These results are taken from patent EP4678638A1, “NEW E3 UBIQUITIN LIGASE LIGAND, PROTEIN DEGRADATION AGENT AND USE THEREOF” (priority 2023, dated 2024).

T2 sequence (P11802 whole entry): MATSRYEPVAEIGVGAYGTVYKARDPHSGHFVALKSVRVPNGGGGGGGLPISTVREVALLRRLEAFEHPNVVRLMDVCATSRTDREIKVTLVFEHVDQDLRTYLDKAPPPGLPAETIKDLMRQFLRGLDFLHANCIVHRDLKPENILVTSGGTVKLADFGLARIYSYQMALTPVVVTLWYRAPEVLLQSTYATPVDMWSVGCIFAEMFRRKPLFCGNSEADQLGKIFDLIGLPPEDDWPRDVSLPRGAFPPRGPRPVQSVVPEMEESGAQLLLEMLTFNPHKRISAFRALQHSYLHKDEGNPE
T1 sequence (Q00534 whole entry): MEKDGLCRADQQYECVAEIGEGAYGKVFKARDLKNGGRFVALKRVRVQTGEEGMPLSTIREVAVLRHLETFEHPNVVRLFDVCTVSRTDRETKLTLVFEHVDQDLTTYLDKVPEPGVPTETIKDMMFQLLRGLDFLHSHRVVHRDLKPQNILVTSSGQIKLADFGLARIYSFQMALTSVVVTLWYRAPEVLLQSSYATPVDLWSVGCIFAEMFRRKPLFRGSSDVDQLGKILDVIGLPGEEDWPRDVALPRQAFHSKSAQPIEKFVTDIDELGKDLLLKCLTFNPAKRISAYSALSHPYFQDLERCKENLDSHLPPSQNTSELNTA

In the case of `CN(C)C(=O)c1cc2cnc(Nc3ccc(N4CCC(N(C)Cc5ccc(N6CCC(=O)NC6=O)cn5)CC4)cn3)nc2n1C1CCCC1` [GT-06493, 7-cyclopentyl-2-((5-(4-(((5-(2,4-dioxotetrahydropyrimidin-1(2H)-yl)pyridin-2-yl)methyl)(methyl)amino)piperidin-1-yl)pyridin-2-yl)amino)-N,N-dimethyl-7H-pyrrolo[2,3-d]pyrimidine-6-carboxamide], at CDK6, the “Degradation of substrate protein CDK6 (substrate protein remaining %)” value is “B (B is defined as substrate protein remaining % > 80%)”. Besides, the “Degradation of substrate protein CDK4 (substrate protein remaining %)” value at CDK4 is “A (A is defined as 0% ≤ substrate protein remaining % ≤ 80%)”.

Consider `CN(C)C(=O)c1cc2cnc(Nc3ccc(N4CCC(N(C)Cc5ccc(C6CCC(=O)NC6=O)cc5)CC4)cn3)nc2n1C1CCCC1` (stereo not shown) [GT-06490, 7-cyclopentyl-2-((5-(4-((4-(2,6-dioxopiperidin-3-yl)benzyl)(methyl)amino)piperidin-1-yl)pyridin-2-yl)amino)-N,N-dimethyl-7H-pyrrolo[2,3-d]pyrimidine-6-carboxamide], for which the “Degradation of substrate protein CDK6 (substrate protein remaining %)” value at CDK6 is on record as “B (B is defined as substrate protein remaining % > 80%)”. Besides, the “Degradation of substrate protein CDK4 (substrate protein remaining %)” value on CDK4 was “A (A is defined as 0% ≤ substrate protein remaining % ≤ 80%)”.

Regarding `CC(=O)c1c(C)c2cnc(Nc3ccc(N4CCN(Cc5cc(N6CCC(=O)NC6=O)cnc5F)CC4)cn3)nc2n(C2CCCC2)c1=O` [GT-07832, 1-(5-((4-(6-((6-acetyl-8-cyclopentyl-5-methyl-7-oxo-7,8-dihydropyrido[2,3-d]pyrimidin-2-yl)amino)pyridin-3-yl)piperazin-1-yl)methyl)-6-fluoropyridin-3-yl)dihydropyrimidine-2,4(1H,3H)-dione], the “Degradation of substrate protein CDK6 (substrate protein remaining %)” value on CDK6 was “A (A is defined as 0% ≤ substrate protein remaining % ≤ 80%)”. Also, on CDK4, the “Degradation of substrate protein CDK4 (substrate protein remaining %)” value was “A (A is defined as 0% ≤ substrate protein remaining % ≤ 80%)”.

For `NC(=O)c1ncc(N2CCCCC2)nc1Nc1ccc(C2CCN(Cc3ccc(C4CCC(=O)NC4=O)c(F)c3)CC2)cc1` (stereo not shown) [GT-04786, 3-((4-(1-(4-(2,6-dioxopiperidin-3-yl)-3-fluorobenzyl)piperidin-4-yl)phenyl)amino)-5-(piperidin-1-yl)pyrazine-2-carboxamide], the figures for the IC50 in the assay with H2228, in the assay on H1975 and with PC-9 were 100 to 500 nM, 500 to 1000 nM and 500 to 1000 nM, respectively.

Consider `CN(C)C(=O)c1cc2cnc(Nc3ccc(N4CCN(Cc5ccc(N6CCC(=O)NC6=O)nc5)CC4)cn3)nc2n1C1CCCC1` [GT-06343, 7-cyclopentyl-2-((5-(4-((6-(2,4-dioxotetrahydropyrimidin-1(2H)-yl)pyridin-3-yl)methyl)piperazin-1-yl)pyridin-2-yl)amino)-N,N-dimethyl-7H-pyrrolo[2,3-d]pyrimidine-6-carboxamide], for which the “Degradation of substrate protein CDK6 (substrate protein remaining %)” value on CDK6 is “A (A is defined as 0% ≤ substrate protein remaining % ≤ 80%)”. Besides, on CDK4, the “Degradation of substrate protein CDK4 (substrate protein remaining %)” value is given as “A (A is defined as 0% ≤ substrate protein remaining % ≤ 80%)”.

For the compound `CN(C)C(=O)c1cc2cnc(Nc3ccc(N4CCC(N(C)Cc5cccc(NC6CCC(=O)NC6=O)c5)CC4)cn3)nc2n1C1CCCC1` (stereo not shown) [GT-06495, 7-cyclopentyl-2-((5-(4-((3-((2,6-dioxopiperidin-3-yl)amino)benzyl)(methyl)amino)piperidin-1-yl)pyridin-2-yl)amino)-N,N-dimethyl-7H-pyrrolo[2,3-d]pyrimidine-6-carboxamide], the “Degradation of substrate protein CDK6 (substrate protein remaining %)” value on CDK6 is “A (A is defined as 0% ≤ substrate protein remaining % ≤ 80%)”. Also, the “Degradation of substrate protein CDK4 (substrate protein remaining %)” value on CDK4 is given as “A (A is defined as 0% ≤ substrate protein remaining % ≤ 80%)”.

Turning to `CN1CCN([C@@H]2CCCN(c3cnc(C(N)=O)c(Nc4ccc(C5CCN(Cc6ccc(C7CCC(=O)NC7=O)cc6)CC5)cc4)n3)C2)C1=O` (stereo partly drawn) [GT-04798, 3-((4-(1-(4-(2,6-dioxopiperidin-3-yl)benzyl)piperidin-4-yl)phenyl)amino)-5-((R)-3-(3-methyl-2-oxoimidazolidin-1-yl)piperidin-1-yl)pyrazine-2-carboxamide], the IC50 in the assay on H2228 lay in the range of 500 to 1000 nM; with H1975, 500 to 1000 nM; with PC-9, 100 to 500 nM.

Regarding `CN1CCN([C@@H]2CCCN(c3cnc(C(N)=O)c(Nc4ccc(C5CCN(Cc6ccc(N7CCC(=O)NC7=O)c(F)c6)CC5)cc4)n3)C2)C1=O` [GT-04801, (R)-3-((4-(1-(4-(2,4-dioxotetrahydropyrimidin-1(2H)-yl)-3-fluorobenzyl)piperidin-4-yl)phenyl)amino)-5-(3-(3-methyl-2-oxoimidazolidin-1-yl)piperidin-1-yl)pyrazine-2-carboxamide], the IC50 with H2228 was 100 to 500 nM; with H1975, 500 to 1000 nM; in the assay on PC-9, 100 to 500 nM.

For the compound `CN1CCN([C@@H]2CCCN(c3cnc(C(N)=O)c(Nc4ccc(C5CCN(Cc6ccc(C7CCC(=O)NC7=O)c(F)c6)CC5)cc4)n3)C2)C1=O` (stereo partly drawn) [GT-04799, 3-((4-(1-(4-(2,6-dioxopiperidin-3-yl)-3-fluorobenzyl)piperidin-4-yl)phenyl)amino)-5-((R)-3-(3-methyl-2-oxoimidazolidin-1-yl)piperidin-1-yl)pyrazine-2-carboxamide], the IC50 with H2228 and in the assay on PC-9 was 500 to 1000 nM each time.

Consider `NC(=O)c1ncc(N2CCCCC2)nc1Nc1ccc(C2CCN(Cc3ccc(N4CCC(=O)NC4=O)cc3)CC2)cc1` [GT-04789, 3-((4-(1-(4-(2,4-dioxotetrahydropyrimidin-1(2H)-yl)benzyl)piperidin-4-yl)phenyl)amino)-5-(piperidin-1-yl)pyrazine-2-carboxamide], for which the results for the IC50 with H2228, in the assay with H1975 and in the assay with PC-9 were 100 to 500 nM, 500 to 1000 nM and 100 to 500 nM, respectively.

In the case of `Nc1nc(Nc2ccc(S(=O)(=O)N3CCN(Cc4ccc(N5CCC(=O)NC5=O)cc4)CC3)cc2)nn1C(=O)c1c(F)cccc1F` [GT-06751, 1-(4-((4-((4-((5-amino-1-(2,6-difluorobenzoyl)-1H-1,2,4-triazol-3-yl)amino)phenyl)sulfonyl)piperazin-1-yl)methyl)phenyl)dihydropyrimidine-2,4(1H,3H)-dione], the IC50 with CCRF-CEM and in the assay with MV-4-11 was 500 to 1000 nM in each case.

For the compound `Nc1nc(Nc2ccc(S(=O)(=O)N3CCN(Cc4ccc(N5CCC(=O)NC5=O)nc4)CC3)cc2)nn1C(=O)c1c(F)cccc1F` [GT-06754, 1-(5-((4-((4-((5-amino-1-(2,6-difluorobenzoyl)-1H-1,2,4-triazol-3-yl)amino)phenyl)sulfonyl)piperazin-1-yl)methyl)pyridin-2-yl)dihydropyrimidine-2,4(1H,3H)-dione], the IC50 in the assay on CCRF-CEM and in the assay on MV-4-11 was 500 to 1000 nM throughout.

Take `NC(=O)c1ncc(N2CCCCC2)nc1Nc1ccc(C2CCN(Cc3ccc(N4CCC(=O)NC4=O)c(F)c3)CC2)cc1` [GT-04788, 3-((4-(1-(4-(2,4-dioxotetrahydropyrimidin-1(2H)-yl)-3-fluorobenzyl)piperidin-4-yl)phenyl)amino)-5-(piperidin-1-yl)pyrazine-2-carboxamide]: the IC50 in the assay on H2228 is 100 to 500 nM; with H1975, 500 to 1000 nM; with PC-9 it was 100 to 500 nM.
